Experimental findings from PMC12734986 (Marine Drugs, 2025) are described below.

In series [1] the test system is A549 xenograft in BALB/c nude mice. Kind of series: A549 xenograft tumor growth. Format: in vivo, mouse. The conditions noted are these: 20 mg/kg intratumorally, every other day, six injections, subcutaneous A549. As to the method:
(§1) Xenograft tumors were generated by subcutaneous injection of A549 lung cancer cells (1 × 10^6 cells/100 µL) into the right flanks of BALB/c female nude mice (5 weeks of age, n = 20). […] The control mice were injected with equal volumes of DW. The tumor size was measured using a caliper (calculated volume = shortest diameter^2 × […]) at 2- or 3-day intervals. The methods were performed in accordance with the relevant guidelines and regulations and were approved by the Animal Care and Use Committee (IACUC) of the National Marine Biodiversity Institute of Korea (Approval No.: MAB-004; approval date: 2 December 2024).

The next series relates to horse blood erythrocytes. Kind of series: Hemolytic activity assay. The format is cell-based. The note with it: 20 μM. The text has this:
In this assay, 1% Triton X-100, which causes 100% hemolysis of horse blood erythrocytes, was used as a positive control to indicate complete cell lysis. DW solution served as a negative control, indicating no hemolytic activity.

Series [2] concerns cellular vimentin in lung cancer cells. Description: Vimentin immunofluorescence staining. The format is cell-based, human. The conditions noted are these: 10 μM MP28, immunofluorescence.
For series [3], the system named is NSCLC cells (A549, H460, H1299). Kind of series: Colony formation assay. Format: cell-based, human. The note with it: 10 and 20 μM, 7 days, crystal violet, all NSCLCs. On the procedure: (§2) Lung cancer cells were seeded at a density of 10^3 cells in a 35 mm dish and cultured with the peptide for 7 days, until macroscopic colonies formed. Following incubation, the cells were washed and stained with 0.1% crystal violet for 30 min, and the colonies were imaged and counted. Cell morphology was observed and captured at ×10 magnification using an inverted light microscope.

Series [4] concerns NSCLC cells. Kind of series: Transwell invasion assay (Matrigel-coated). Format: cell-based, human. The note with it: 10 μM. On the procedure:
(§3) Cell migration and invasion were assessed using Transwell chambers with 8 μm pores (BD Biosciences). Cancer cells (2 × 10^4) were seeded in serum-free medium in the upper chamber, while medium containing 10% FBS was placed in the lower chamber. Matrigel-coated upper chambers were used for invasion assays. Following incubation, the migratory and invasive cells were fixed, stained with crystal violet, and imaged under a light microscope.

The subject of series [5] is caspase-9 in NSCLC cells (A549, H460, H1299). Description: Active caspase-9 (FITC-LEHD-FMK) staining. The format is cell-based, human. On the procedure: (§4) The treated cells (1 × 10^6) were harvested, washed with PBS, and collected by centrifugation. Cells were stained with Annexin V and propidium iodide (PI) solution (556547; BD Biosciences, San Jose, CA, USA), followed by incubation at 37 °C for 15 min. […] As a negative control, z-VAD-FMK was added to each experimental condition according to the manufacturer’s instructions (ab65615; caspase 9 FITC staining kit). The cells were resuspended in 300 μL of a washing buffer and were analyzed by a flow cytometer (Accuri C6 Plus; BD Biosciences, San Jose, CA, USA).

The test system of series [6] is lung cancer cells. Description: Wound-healing assay. Format: cell-based, human. The note with it: more pronounced at 24 h. On the procedure:
For the wound-healing assays, cancer cells were grown to >90% confluence in 6-well plates, and scratches were created using a pipette tip. After washing, the cells were incubated in a medium with 10% FBS for 18 h and 24 h. Wound closure was monitored using an inverted phase-contrast microscope (CKX53, Olympus, Shinjuku, Tokyo, Japan), and migration was quantified by measuring the distance between wound edges at multiple sites.

The subject of series [7] is NSCLC cells. Kind of series: Transwell migration assay. Format: cell-based, human. The conditions noted are these: Transwell 8 μm pores, 10 μM. On the procedure: as §3
Series [8] in a line: Body weight in the A549 xenograft model. The conditions noted are these: 20 mg/kg intratumorally, six injections, during the treatment period. The format is in vivo, mouse. On the procedure: as §1
For a further series, the system named is H460 cells. Description: Annexin V/PI staining, flow cytometry. The format is cell-based, human. As to the method:
as §4
In general terms: In flow cytometry, cells or beads pass a laser one at a time.

A further series deals with H1299 cells. Kind of series: Annexin V/PI staining, flow cytometry. Format: cell-based, human. As to the method:
as §4

The test system of another series is A549 cells. Kind of series: Annexin V/PI staining, flow cytometry. Format: cell-based, human. The note with it: A549, upper end of the increase (20 μM). As to the method:
as §4

Series [9] deals with lung cancer cells. Description: Cell morphology by inverted light microscope. Format: cell-based, human. The note with it: 10 μM MP28, lung cancer cells. On the procedure:
as §2

Residues, ends and D or L forms follow the SMILES beside them.

Take `CC(C)C[C@H](NC(=O)[C@H](Cc1c[nH]c2ccccc12)NC(=O)[C@@H]1CCCN1C(=O)[C@H](CCCCN)NC(=O)[C@H](CCCCN)NC(=O)[C@H](CS)NC(=O)[C@@H](N)CS)C(=O)N[C@@H](CCCNC(=N)N)C(=O)N[C@@H](CS)C(=O)N[C@@H](Cc1c[nH]c2ccccc12)C(=O)N[C@@H](CCCNC(=N)N)C(=O)N[C@H](C(=O)N[C@@H](CS)C(=O)N[C@@H](CC(C)C)C(=O)N1CCC[C@H]1C(=O)N[C@@H](CO)C(=O)N[C@@H](CCCNC(=N)N)C(=O)N[C@@H](Cc1c[nH]c2ccccc12)C(=O)N[C@@H](CCC(N)=O)C(=O)N[C@@H](CCCNC(=N)N)C(=O)N[C@@H](CCC(=O)O)C(=O)N[C@@H](CCCNC(=N)N)C(=O)N[C@@H](Cc1ccccc1)C(=O)NCC(=O)N[C@@H](CCCNC(=N)N)C(=O)N[C@@H](CCCCN)C(=O)N[C@@H](CS)C(N)=O)[C@@H](C)O` [MP28] (H-CCKKPWLRCWRTCLPSRWQRERFGRKC-NH2; N-terminus assumed): the “tumor growth versus control” value in [1] was “tumor growth was significantly slower”. Further, the “hemolysis (in words)” value with horse blood erythrocytes is on record as “no or minimal hemolysis”. Further, in series [2], the cellular vimentin level entry was “decreased the levels of cellular vimentin”. For the same compound, the “colony formation (long term cell proliferation)” value in series [3] is “markedly reduced cell growth”. Also, the invasive capacity entry with NSCLC cells [4] is “significantly reduced”. Moreover, the caspase-9 activation result in series [5] (10 μM MP28 for 3 h, NSCLCs, FITC fluorescence microscopy and flow cytometry) is on record as “triggered caspase-9 activation”. Further, the “induction of cleaved caspase-9” value in [5] (A549 and H460 cells (wild-type p53)) was “more rapid and robust induction of cleaved caspase-9”; in [5] (H1299 cells (p53-deficient)) it was “weaker activation signal”. Moreover, the “residual wound area versus control” value in the series with lung cancer cells [6] is given as “larger residual wound areas”. In the series with NSCLC cells [7], the migratory capacity entry was “significantly reduced”. For the same compound, in series [8], the “body weight versus control” value is “No significant loss of body weight”. The “percentage of apoptotic cells” value in the series with H460 cells (H460, lower end of the increase (10 μM as read from the text)) came out at 7.5%; in the series on H460 cells (H460, upper end of the increase (20 μM)), 19.2%; in the series with H1299 cells (H1299, lower end of the increase (10 μM as read from the text)) it was 3.1%; in the series with H1299 cells (H1299, upper end of the increase (20 μM)), 17.8%; in the series with A549 cells it was 15.6%. Moreover, the morphological changes entry in the series on lung cancer cells [9] was “morphological changes from a spindle to a cobblestone-like shape”.
